Literature values, collected in patent US20240000142A1, “AEROSOL […] FOR AQUEOUS CANNABINOID COMPOSITIONS” (OMEGA LIFE SCIENCE LTD., priority 2020, published 2024).

Settings: nicotine as a weak base; "as appreciated by the skilled in the art"

Question: With CN1CCCC1c1cccnc1 (stereo not shown) [nicotine] as the compound, how does the pKa read?
Answer: Its pKa is “about 8”.
